Key:
[1] = tested on: Mycobacterium tuberculosis Erdman (autoluminescent); test: AUC25, normalised area under dose response up to IC25 (three-drug combination) (fraction (0-1)); higher = more potent at low dose
Protocol: (§1)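 DiaMOND equipotent three-drug combination dose responses (10 doses, 1.5- or 2-fold spacing, centred on IC90) against autoluminescent M. tuberculosis Erdman in 8 in vitro models. Read-out is OD600, or luminescence for the intracellular and dormancy models, normalised to untreated wells. Hill-fit Einf, AUC25 and GRinf are potency metrics; FIC50 and FIC90 are total Loewe fractional inhibitory concentrations as log2 (negative = synergy).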

[2] = tested on: Mycobacterium tuberculosis Erdman (autoluminescent); test: Einf, fitted maximum growth inhibition of three-drug combination (fraction); higher = stronger maximal inhibition
Protocol: as §1

[3] = tested on: Mycobacterium tuberculosis Erdman (autoluminescent); test: total FIC90 (Loewe) at 90% inhibition, three-drug combination (log2); higher = more antagonistic
Protocol: as §1

[4] = tested on: Mycobacterium tuberculosis Erdman (autoluminescent); test: GRinf, maximum normalised growth rate inhibition (three-drug combination) (unitless (-1 to 1)); higher = less effect (negative = killing)
Protocol: as §1

[5] = tested on: Mycobacterium tuberculosis Erdman (autoluminescent); test: total FIC50 (Loewe) at 50% inhibition, three-drug combination (log2); higher = more antagonistic
Protocol: as §1

CC(C)/N=c1\cc2n(-c3ccc(Cl)cc3)c3ccccc3nc-2cc1Nc1ccc(Cl)cc1 [clofazimine] + CC(=O)NC[C@H]1CN(c2ccc(N3CCOCC3)c(F)c2)C(=O)O1 [linezolid] + O=[N+]([O-])c1cn2c(n1)OC[C@@H](OCc1ccc(OC(F)(F)F)cc1)C2 [pretomanid]
Details | AUC25, [1] | Einf, [2] | GRinf, [4] | total FIC50, [5] | total FIC90, [3]
in vitro model: acidic pH 5.7, time point: constant (~7 days, model-specific) | 0.106 | 0.845 | -0.45 | 0.0449 | –
in vitro model: acidic pH 5.7, time point: terminal (~4-5 doublings, model-specific) | 0.0757 | 0.964 | -0.318 | 1.03 | 0.257
in vitro model: intracellular J774, time point: constant = terminal | – | 0.996 | -0.884 | – | 1.09

Details | AUC25, [1] | Einf, [2] | GRinf, [4] | total FIC50, [5] | total FIC90, [3]
in vitro model: butyrate, time point: constant (~7 days, model-specific) | 0.124 | 0.962 | -0.311 | 0.534 | 1.52
in vitro model: butyrate, time point: terminal (~4-5 doublings, model-specific) | 0.0915 | 0.98 | -0.185 | 0.691 | 1.09
in vitro model: cholesterol 0.05 mM, time point: constant (~7 days, model-specific) | 0.133 | 0.677 | -0.0316 | -0.375 | –
in vitro model: cholesterol 0.05 mM, time point: terminal (~4-5 doublings, model-specific) | 0.136 | 0.918 | -0.14 | 0.13 | 2.05
in vitro model: cholesterol-high 0.2 mM, time point: constant (~7 days, model-specific) | 0.116 | 0.922 | -0.441 | 0.0459 | 1.18
in vitro model: cholesterol-high 0.2 mM, time point: terminal (~4-5 doublings, model-specific) | 0.123 | 1 | -0.938 | -0.122 | 0.391
in vitro model: dormancy (butyrate + nitrate, low O2), time point: constant (~7 days, model-specific) | 0.0841 | 0.925 | 0.221 | 0.87 | 1.32
in vitro model: dormancy (butyrate + nitrate, low O2), time point: terminal (~4-5 doublings, model-specific) | 0.0337 | 0.986 | -0.216 | 0.422 | 0.0103
in vitro model: standard 7H9 glycerol, time point: constant = terminal | 0.128 | 0.951 | -0.277 | 0.0629 | 0.915
in vitro model: valerate, time point: constant (~7 days, model-specific) | 0.14 | 0.85 | -0.138 | 0.292 | –
in vitro model: valerate, time point: terminal (~4-5 doublings, model-specific) | 0.0928 | 0.892 | 0.125 | 0.0202 | 1.37

CC(C)/N=c1\cc2n(-c3ccc(Cl)cc3)c3ccccc3nc-2cc1Nc1ccc(Cl)cc1 [clofazimine] + CC[C@@H](CO)NCCN[C@@H](CC)CO [ethambutol] + CC(=O)NC[C@H]1CN(c2ccc(N3CCOCC3)c(F)c2)C(=O)O1 [linezolid]
Details | AUC25, [1] | Einf, [2] | GRinf, [4] | total FIC50, [5] | total FIC90, [3]
in vitro model: acidic pH 5.7, time point: constant (~7 days, model-specific) | 0.105 | 0.811 | -0.393 | 0.0935 | –
in vitro model: acidic pH 5.7, time point: terminal (~4-5 doublings, model-specific) | 0.0957 | 0.963 | -0.297 | 0.906 | 0.401
in vitro model: intracellular J774, time point: constant = terminal | – | 1 | -0.815 | – | 0.836

Details | AUC25, [1] | Einf, [2] | GRinf, [4] | total FIC50, [5] | total FIC90, [3]
in vitro model: butyrate, time point: constant (~7 days, model-specific) | 0.11 | 0.96 | -0.165 | 0.534 | –
in vitro model: butyrate, time point: terminal (~4-5 doublings, model-specific) | 0.0792 | 0.977 | -0.123 | 0.703 | 0.483
in vitro model: cholesterol 0.05 mM, time point: constant (~7 days, model-specific) | 0.148 | 0.746 | -0.203 | – | –
in vitro model: cholesterol 0.05 mM, time point: terminal (~4-5 doublings, model-specific) | 0.165 | 0.917 | -0.514 | -0.786 | –
in vitro model: cholesterol-high 0.2 mM, time point: constant (~7 days, model-specific) | 0.129 | 0.925 | -1 | 0.0764 | –
in vitro model: cholesterol-high 0.2 mM, time point: terminal (~4-5 doublings, model-specific) | 0.125 | 1 | -0.967 | -0.259 | 0.74
in vitro model: dormancy (butyrate + nitrate, low O2), time point: constant (~7 days, model-specific) | 0.0953 | 0.783 | 0.496 | 0.231 | –
in vitro model: dormancy (butyrate + nitrate, low O2), time point: terminal (~4-5 doublings, model-specific) | 0.0972 | 0.963 | -0.701 | 0.197 | 0.279
in vitro model: standard 7H9 glycerol, time point: constant = terminal | 0.122 | 0.949 | -0.0541 | 0.243 | –
in vitro model: valerate, time point: constant (~7 days, model-specific) | 0.11 | 0.869 | -0.282 | 0.664 | –
in vitro model: valerate, time point: terminal (~4-5 doublings, model-specific) | 0.0648 | 0.881 | -0.0657 | 0.302 | -0.133

CC(C)/N=c1\cc2n(-c3ccc(Cl)cc3)c3ccccc3nc-2cc1Nc1ccc(Cl)cc1 [clofazimine] + CC[C@@H](CO)NCCN[C@@H](CC)CO [ethambutol] + CO[C@H]1/C=C/O[C@@]2(C)Oc3c(C)c(O)c4c(O)c(c(/C=N/N5CCN(C6CCCC6)CC5)c(O)c4c3C2=O)NC(=O)/C(C)=C\C=C\[C@H](C)[C@H](O)[C@@H](C)[C@@H](O)[C@@H](C)[C@H](OC(C)=O)[C@@H]1C [rifapentine]
Details | AUC25, [1] | Einf, [2] | GRinf, [4] | total FIC50, [5] | total FIC90, [3]
in vitro model: acidic pH 5.7, time point: constant (~7 days, model-specific) | 0.0945 | 0.877 | -0.109 | 0.153 | –
in vitro model: acidic pH 5.7, time point: terminal (~4-5 doublings, model-specific) | 0.0736 | 0.978 | -0.14 | 0.358 | 0.125
in vitro model: intracellular J774, time point: constant = terminal | – | 0.973 | -0.172 | – | -1.79

Details | AUC25, [1] | Einf, [2] | GRinf, [4] | total FIC50, [5] | total FIC90, [3]
in vitro model: butyrate, time point: constant (~7 days, model-specific) | 0.083 | 0.942 | -0.0595 | 0.37 | –
in vitro model: butyrate, time point: terminal (~4-5 doublings, model-specific) | 0.0656 | 0.972 | -0.043 | 0.422 | -0.0851
in vitro model: cholesterol 0.05 mM, time point: constant (~7 days, model-specific) | 0.111 | 0.703 | -0.0332 | – | –
in vitro model: cholesterol 0.05 mM, time point: terminal (~4-5 doublings, model-specific) | 0.0974 | 0.871 | -0.122 | 1.66 | –
in vitro model: cholesterol-high 0.2 mM, time point: constant (~7 days, model-specific) | 0.0285 | 0.928 | -0.371 | 1.18 | –
in vitro model: cholesterol-high 0.2 mM, time point: terminal (~4-5 doublings, model-specific) | 0.0668 | 1 | -0.81 | 1.37 | 1.24
in vitro model: dormancy (butyrate + nitrate, low O2), time point: constant (~7 days, model-specific) | 0.105 | 0.823 | 0.414 | -0.127 | –
in vitro model: dormancy (butyrate + nitrate, low O2), time point: terminal (~4-5 doublings, model-specific) | 0.128 | 0.99 | -0.336 | 0.0752 | 0.891
in vitro model: standard 7H9 glycerol, time point: constant = terminal | 0.105 | 0.92 | 0.0206 | -0.0963 | –
in vitro model: valerate, time point: constant (~7 days, model-specific) | 0.126 | 0.889 | 0.017 | 1.07 | –
in vitro model: valerate, time point: terminal (~4-5 doublings, model-specific) | 0.0898 | 0.925 | 0.0199 | 0.462 | 0.841

Source: the supplement of paper PMC8617591
